Holding throughout (assay type): biochemical
Test [1] addresses T1, AK1 (Homo sapiens, UniProt P00568).
T1 sequence (P00568 1-194): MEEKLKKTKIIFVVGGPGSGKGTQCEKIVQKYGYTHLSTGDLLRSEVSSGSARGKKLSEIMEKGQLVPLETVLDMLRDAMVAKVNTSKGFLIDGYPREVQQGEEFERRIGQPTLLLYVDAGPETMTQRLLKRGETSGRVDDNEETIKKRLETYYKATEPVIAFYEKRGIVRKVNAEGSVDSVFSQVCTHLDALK
The test can be described thus: AK1 enzyme activity with ATP versus deuterated ATP. The procedure: The assay is carried out in the presence of ATP and AMP measuring the formation of ADP. […] A kinetic isotope effect is also obtained when comparing the activity of the enzyme when the reaction is carried out in the presence of AMP and deuterated AMP. A further KIE is obtained when both deuterated ATP and deuterated AMP are used in the reaction. […] The KIE is obtained by dividing the activity of the enzyme in the presence of the proteated species (vH) by the enzyme activity in the presence of the deuterated species (vD) and is vH/vD=0.5. […] The proposed basic reaction mechanisms by which all forms of kinase are regulated occurs via either the formation of an immonium species at N7, which in turn induces the formation of a carbene at C8 or via the delocalization of electrons away from the C8 rendering the C8 more acidic. An immonium species may be induced at N7 by (1) protonation via a coordinated HCO3^−, (2) carboxylation of the N7, or (3) the coordination of an amino acid side chain within the active site such as a arginine, glutamine, lysine or histidine. The different forms of regulation are then based on the mechanism by which the carbene formed at C8 is stabilized and the mechanism by which the C8-H is deprotonated or via the interaction of the protein coordinated amino acid side chains affecting the delocalization of electrons around the adenyl ring of the nucleotide.

Test [2] has as its system Saccharomyces cerevisiae hexokinase. The test can be described thus: Hexokinase steady-state kinetics, ATP vs C8D-ATP.
Test [3] deals with T2, Escherichia coli acetate kinase (Escherichia coli, UniProt P0A6A3).
T2 construct: purchased Sigma A7437
T2 sequence (P0A6A3 whole entry): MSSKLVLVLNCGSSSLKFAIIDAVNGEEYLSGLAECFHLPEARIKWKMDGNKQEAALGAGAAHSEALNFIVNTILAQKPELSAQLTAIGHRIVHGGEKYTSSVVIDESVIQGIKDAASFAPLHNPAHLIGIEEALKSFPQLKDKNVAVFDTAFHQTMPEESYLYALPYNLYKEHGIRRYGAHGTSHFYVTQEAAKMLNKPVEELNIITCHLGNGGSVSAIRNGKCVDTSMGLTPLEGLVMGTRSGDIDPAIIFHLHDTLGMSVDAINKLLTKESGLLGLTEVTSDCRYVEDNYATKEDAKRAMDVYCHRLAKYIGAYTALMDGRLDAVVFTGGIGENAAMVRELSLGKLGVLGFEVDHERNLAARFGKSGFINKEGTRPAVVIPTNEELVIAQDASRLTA
The test can be described thus: Acetate kinase steady-state kinetics, ATP vs C8D-ATP. The text has this: Hexokinase from Saccharomyces cerevisiae Type F-300 (Sigma, H4502) and Acetate kinase from E. coli (Sigma, A7437) were purchased. The human adenylate kinase (AK1) gene in vector pLIG-SC1 was obtained from the Structural Genomics Consortium (code AK1A). The His-tagged AK1 was produced in Escherichia coli Origami (DE3) and purified using the Bio-Rad Profinia Purification System. […] The Mycobacterium tuberculosis shikimate kinase gene in pET15b (Novagen) was obtained from the group of Chris Abell, Cambridge University, UK. The his-tagged MtSK was produced in E. coli BL21 (DE3) and purified using the Bio-Rad Profinia Purification System. The pure protein was dialysed against 50 mM Tris (pH 7.5) and 1,000 mM NaCl. Adenylylated (GS12) and deadenylylated (GS0) glutamine synthetase were prepared as outlined below.
The assay was incubated at 30° C. for 30 minutes and stopped by the addition of 1 μl of 50% TCA. The formation of ADP was analysed by HPLC.
The results are reflected in FIGS. 19 to 25. […] The best-fit to the data was obtained for the specified kinetic model using the non-linear regression algorithms as outlined using the GraphPad Prism® 5 software. […] These response curves were then used to define the KIE by the conventional estimation of KIE from KIE=vH/vD. The KIED was also determined using the following function: […]

Test [4] has as its target Escherichia coli deadenylylated glutamine synthetase (GS0) (Escherichia coli, UniProt P0A9C5). The note with it: for Hill factor (h): allosteric sigmoidal model.
For test [5], the target named is B. stearothermophilus phosphofructokinase (Geobacillus stearothermophilus, UniProt P00512). The note with it: for Hill factor (h): allosteric sigmoidal model.
B. stearothermophilus phosphofructokinase, sequence (P00512 whole entry): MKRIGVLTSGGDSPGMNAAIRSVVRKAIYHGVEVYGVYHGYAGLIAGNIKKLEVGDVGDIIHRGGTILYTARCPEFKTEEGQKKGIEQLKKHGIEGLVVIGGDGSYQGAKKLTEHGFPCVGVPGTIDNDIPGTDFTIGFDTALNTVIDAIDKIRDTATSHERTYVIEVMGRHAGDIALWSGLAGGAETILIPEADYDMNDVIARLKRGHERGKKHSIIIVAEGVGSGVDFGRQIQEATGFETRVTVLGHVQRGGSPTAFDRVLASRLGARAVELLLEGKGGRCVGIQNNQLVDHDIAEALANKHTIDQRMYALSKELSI
Test [6] concerns the target Escherichia coli adenylylated glutamine synthetase (GS12) (Escherichia coli, UniProt P0A9C5). The note with it: for Hill factor (h): allosteric sigmoidal model.
The target of test [7] is T1, AK1. The test can be described thus: Effect of ATPS and C8-D ATPS on synthesis of ADP by AK1. The note with it: 0.2-1.0 mM, 0.6 mM ATP, 0.6 mM AMP, pH 7.2. How it is done: Increasing concentrations of ATPS or C8-D ATPS were added; 0.2, 0.4, 0.6, 0.8, and 1.0 mM. Assays, in a final volume of 1 ml, were allowed to proceed for 45 mins at 37° C., before 6 μl 100% TCA was added to stop the reaction. […] The assay where no ATPS or C8-D ATPS was added produced 0.19 mM ADP.

Where [8] appears, read: tested model: Allosteric sigmoidal.

Like-named read-outs stand apart in the source and are kept apart here.

Escherichia coli adenylylated glutamine synthetase (GS12), sequence (P0A9C5 2-469): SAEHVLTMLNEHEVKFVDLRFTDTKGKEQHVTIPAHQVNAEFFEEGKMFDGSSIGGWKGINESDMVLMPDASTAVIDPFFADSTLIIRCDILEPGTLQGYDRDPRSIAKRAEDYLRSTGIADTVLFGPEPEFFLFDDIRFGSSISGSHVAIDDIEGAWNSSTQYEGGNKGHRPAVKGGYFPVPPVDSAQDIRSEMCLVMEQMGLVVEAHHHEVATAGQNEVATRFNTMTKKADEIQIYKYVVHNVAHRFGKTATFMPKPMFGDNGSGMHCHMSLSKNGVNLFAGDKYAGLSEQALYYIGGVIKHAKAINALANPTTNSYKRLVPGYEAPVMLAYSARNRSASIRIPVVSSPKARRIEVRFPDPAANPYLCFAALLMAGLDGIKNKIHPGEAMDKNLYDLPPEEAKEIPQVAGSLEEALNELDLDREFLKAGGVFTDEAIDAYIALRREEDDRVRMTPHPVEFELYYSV
Escherichia coli deadenylylated glutamine synthetase (GS0), sequence (P0A9C5 2-469): as above

`Nc1ncnc2c1ncn2[C@@H]1O[C@H](COP(=O)(O)OP(=O)(O)OP(=O)(O)O)[C@@H](O)[C@H]1O` [ATP, adenosine triphosphate, reference compound]: the “reduction in AK1 enzyme activity using ATP compared with ATP deuterated at position C8” value at AK1 [1] (low ATP concentrations) was found to be 50%. In addition, the “Hill factor (h)” value in test [2] (allosteric sigmoidal model) was 1.75; in test [3] (allosteric sigmoidal model), 2.08; in test [4], 3.10; in test [5] it was 1.37; in test [6] it was 1.77. Also, the “fit to kinetic model” value in test [2] (setting [8]) is listed as “Allosteric sigmoidal”; in test [2] (tested model: Michaelis-Menton) it was “Fit ambiguous”; in test [3] (setting [8]) it was “Allosteric sigmoidal”; in test [3] (tested model: Michaelis-Menton) it was “Fit ambiguous”; in test [4] (setting [8]), “Allosteric sigmoidal”; in test [4] (tested model: Michaelis-Menton), “Fit ambiguous”. For the same compound, the “fit to kinetic model” value in test [6] (setting [8]) is recorded as “Allosteric sigmoidal”; in test [6] (tested model: Michaelis-Menton), “Fit ambiguous”.
As to `[2H]c1nc2c(N)ncnc2n1C1OC(COP(=O)(O)OP(=O)(O)OP(O)(O)=S)C(O)C1O` (stereo not shown) [C8-D ATPS], on AK1 [7], the “inhibition of AK1” value is listed as “inhibit” and the “inhibition of AK1 compared with ATPS” value was “significantly more inhibition”.
For `Nc1ncnc2c1ncn2[C@@H]1O[C@H](COP(=O)(O)OP(=O)(O)OP(O)(O)=S)[C@@H](O)[C@H]1O` [ATPS, Adenosine 5′-[γ-thio]triphosphate, reference compound], the “inhibition of AK1” value at AK1 [7] was “inhibit”.
As for `Nc1ncnc2c1ncn2[C@@H]1O[C@H](COP(=O)(O)OP(=O)(O)OP(=O)(O)O)[C@@H](O)[C@H]1O` [C8D-ATP], on AK1 [1] (high ATP concentrations), the “reduction in AK1 activity in the presence of deuterated ATP” value is on record as at least 50%. Also, the KIEvmax in test [2] (KIE at maximum enzyme activity) is given as 1; in test [3] (KIE at maximum enzyme activity) it was 1; in test [4] (KIE at maximum enzyme activity), 1; in test [5] (KIE at maximum enzyme activity), 2; in test [6] (KIE at maximum enzyme activity), 2. Besides, the KIED in test [2] (asymptote at Vmax) is recorded as 1; in test [2] (low ATP concentrations), above 5; in test [3] (asymptote at Vmax), 1; in test [3] (low ATP concentrations) it was above 5; in test [4] (asymptote at Vmax), 1; in test [4] (low ATP concentrations), above 5. Besides, the KIED in test [5] (asymptote at Vmax) was 0.5; in test [5] (low ATP concentrations) it was above 5; in test [6] (asymptote at Vmax), 0.5; in test [6] (low ATP concentrations), above 5. Also, the “fit to kinetic model” value in test [2] (setting [8]) is “Fit ambiguous”; in test [2] (tested model: Michaelis-Menton) it was “Michaelis-Menton”; in test [3] (setting [8]), “Fit ambiguous”; in test [3] (tested model: Michaelis-Menton) it was “Michaelis-Menton”; in test [4] (setting [8]), “Allosteric sigmoidal”; in test [4] (tested model: Michaelis-Menton), “Fit ambiguous”. The “fit to kinetic model” value in test [5] (setting [8]) is “Allosteric sigmoidal”; in test [5] (tested model: Michaelis-Menton), “Fit ambiguous”; in test [6] (setting [8]), “Allosteric sigmoidal”; in test [6] (tested model: Michaelis-Menton) it was “Fit ambiguous”. In addition, the figures for the “Hill factor (h)” value in test [4], in test [5] and in test [6] were 4.08, 1.79 and 0.92, respectively.

The values are drawn from US20120270251A1, “INHIBITION OF THE ACTIVITY OF KINASE AND SYNTHETASE ENZYMES” (CSIR, priority 2009, published 2012).
